Reference: patent publication US20210308089A1, “METHODS OF TREATING AND/OR PREVENTING VIRAL INFECTIONS AND/OR DISEASES CAUSED BY VIRUSES IN A SUBJECT IN NEED THEREOF” (priority 2020, published 2021)

System: patients of the REDUCE-IT and earlier EPA placebo-controlled trials
Experiment: Example 3: adverse events by risk ratio, icosapent ethyl vs placebo (candidate categories; infectious disease terms of interest)
Conditions: R-I

CC/C=C\C/C=C\C/C=C\C/C=C\C/C=C\CCCC(=O)OCC [icosapent ethyl, eicosapentaenoic acid ethyl ester]
NNT: Carotid bruit (AE table): 315 | NNT: Cholestasis (AE table): −1.67e+07 | NNT: Chrohn's Disease (AE table): 2045 | NNT: Cognitive Decline: Attention disorders and disturbances (AE table): −8362005 | NNT: Cognitive Decline: Cognitive and attention disorders and disturbances (AE table): −8362005 | NNT: Cough (AE table): −69394 | NNT: Decreased Appetite (AE table): −215 | NNT: Deep Venous Thromboembolism (AE table): 1364 | NNT: Depression: Depressed mood disorders and disturbances (AE table): −340 | NNT: Depression: Depressive disorders (AE table): −314 | NNT: Depression: Depressive disorders - Agitated depression (AE table): −2044 | NNT: Depression: Depressive disorders - Depression (AE table): −408 | NNT: Depression: Depressive disorders - Major depression (AE table): −2044 | NNT: Depression: Depressive disorders - Persistent depressive disorder (AE table): −4088 | NNT: Depression: Mood alterations - Depressed mood (AE table): −3344802 | NNT: Depression: Mood alterations - Depressive symptom (AE table): 4091 | NNT: Depression: Mood alterations with depressive symptoms (AE table): 4096 | NNT: Dermatitis psoriasiform (AE table): −4089 | NNT: Dermatitis, allergic (AE table): 454 | NNT: Diabetic Nephropathy (AE table): 4100 | NNT: ESRD (AE table): 4092 | NNT: Ear infection (AE table): 585 | NNT: Embolism and Thrombosis (AE table): −1358 | NNT: Emphysema (AE table): 511 | NNT: Epilepsy (AE table): −1.67e+07 | NNT: Erectile dysfunction (AE table): 232 | NNT: Furuncle (AE table): 818 | NNT: Gastroenteritis, viral (AE table): 372 | NNT: Gastroesophageal reflux (AE table): 682 | NNT: Gingivitis (AE table): 818 | NNT: Glomerulonephritis and Nephrotic Syndrome (AE table): 1023 | NNT: Guttate psoriasis (AE table): −4089 | NNT: Helicobacter infection (AE table): 1023 | NNT: Hepatitis C (AE table): −4089 | NNT: Herpes Zoster (AE table): 1371 | NNT: Herpes simplex (AE table): 1364 | NNT: Hyperglycemia (AE table): 186 | NNT: Hyperkalemia (AE table): 178 | NNT: Hypertension (AE table): 171 | NNT: Hypertensive Crisis (AE Table): 315 | NNT: Hypokalemia (AE table): −815 | NNT: Hypomagnesemia (AE table): 292 | NNT: Infected bite (AE table): 2046 | NNT: Influenza (AE table): 515 | NNT: Influenza like illness (AE table): 1024 | NNT: Jaundice cholestatic (AE table): −1022 | NNT: Large intestine polyps (AE table): 511 | NNT: Limb Fractures and Dislocations (AE table): 1024 | NNT: Lupus (AE table): 4090 | NNT: Microalbuminuria (AE table): 372 | NNT: Migraine (AE table): −584 | NNT: Mucosal inflammation (AE table): 2046 | NNT: Multiple Sclerosis (AE table): 4090 | NNT: Muscle spasms (AE table): 95 | NNT: NASH (AE table): 818 | NNT: NASH for b/l NFS >0.675 (AE table): 273 | NNT: NASH+Hepatic Steatosis for NFS >0.675 (AE table): 209 | NNT: Nasopharyngitis, Mild Severity (AE table): 516 | NNT: Nephrolithiasis (AE table): −1017 | NNT: Nephropathies (AE table): 455 | NNT: Nephrotic Syndrome (AE table): 4090 | NNT: Orthopnea (AE table): 1023 | NNT: PTSD (AE table): 4092 | NNT: Pancytopenia (AE table): 1023 | NNT: Pneumonia (AE table): 293 | NNT: Proteinuria (AE table): 455 | NNT: Psoriasis (AE table): −341 | NNT: Psoriatic Conditions (AE table): −292 | NNT: Psychosis: Psychotic disorder NEC (AE table): 4091 | NNT: Pulmonary Edema (AE table): 511 | NNT: Respiratory Failure (AE table): 2050 | NNT: Respiratory tract infection (AE table): 1368 | NNT: Rheumatoid Arthritis (AE table): 1363 | NNT: Rhinitis (AE table): 682 | NNT: Schizophrenia NEC (AE table): 4091 | NNT: Sepsis (AE table): 455 | NNT: Severe chronic obstructive pulmonary disease (AE table): 1365 | NNT: Severe dermatitis, allergic (AE table): 1363 | NNT: Severe gastroenteritis (AE table): 1023 | NNT: Severe sepsis (AE table): 585 | NNT: Severe systemic inflammatory response syndrome (AE table): 818 | NNT: Severe urinary tract infection (AE table): 585 | NNT: Systemic inflammatory response syndrome (AE table): 682 | NNT: Tooth infection (AE table): 455 | NNT: Ulcerative Colitis (AE table): 4090 | NNT: Upper respiratory tract infection (AE table): 516 | NNT: Vascular hypertensive disorder (AE table): 124 | NNT: Vulvovaginal mycotic infection (AE table): 682 | NNT: Wheezing (AE table): 315 | Risk Ratio (95% CI): ADHD (AE table): 1.000 (0.141 to 7.097) −1 | Risk Ratio (95% CI): Allergic sinusitis (AE table): 0.500 (0.092 to 2.729) 3 | Risk Ratio (95% CI): Alzheimer's Disease (AE table): 1.000 (0.290 to 3.452) −1 | Risk Ratio (95% CI): Asthma (AE table): 1.076 (0.742 to 1.560) −1 | Risk Ratio (95% CI): Atelectasis (AE table): 0.500 (0.243 to 1.030) 3 | Risk Ratio (95% CI): Bipolar Disease (AE table): 0.333 (0.035 to 3.204) 4 | Risk Ratio (95% CI): Blood CPK increased (AE table): 0.684 (0.485 to 0.964) 2 | Risk Ratio (95% CI): Blood glucose increased (AE table): 0.400 (0.126 to 1.275) 3 | Risk Ratio (95% CI): Bone Fractures (AE table): 2.000 (0.181 to 22.053) −3 | Risk Ratio (95% CI): Bronchiectasis (AE table): 0.500 (0.125 to 1.998) 3 | Risk Ratio (95% CI): Bronchitis chronic (AE table): 0.667 (0.273 to 1.630) 2 | Risk Ratio (95% CI): CKD (AE table): 1.123 (0.766 to 1.646) −1 | Risk Ratio (95% CI): COPD (AE table): 1.084 (0.837 to 1.405) −1 | Risk Ratio (95% CI): Carotid bruit (AE table): 0.435 (0.207 to 0.913) 3 | Risk Ratio (95% CI): Cholestasis (AE table): 1.000 (0.063 to 15.986) −1 | Risk Ratio (95% CI): Chrohn's Disease (AE table): 0.333 (0.035 to 3.204) 4 | Risk Ratio (95% CI): Cognitive Decline: Attention disorders and disturbances (AE table): 1.000 (0.141 to 7.097) −1
